Laboratory results: US9714240B2 (PharmAkea, Inc., priority 2013, dated 2017)
pIC50: −log10 of the molar value.

biological target: T1, human autotaxin (Homo sapiens, UniProt Q13822); test: Human Autotaxin Assay (choline release from LPC); assay type: biochemical; conditions: ATX in concentrated conditioned media from Hep3B cells, substrate LPC 14:0 100 uM, absorbance at 555 nm
T1 construct: Conditioned media is collected from confluent Hep3B cells and concentrated 20-fold; endogenous in cells; host or cells: Hep3B human hepatocellular carcinoma cells (concentrated conditioned medium)
Procedure: ATX activity is assayed in concentrated conditioned media from Hep3B human hepatocellular carcinoma cells by measuring the amount of choline released from the substrate, lysophosphatidylcholine (LPC) as it is cleaved to LPA. Conditioned media is collected from confluent Hep3B cells and concentrated 20-fold using Centriprep-30 filter devices (Millipore). To assay for autotaxin inhibition, 10-20 μL of the concentrated conditioned media is incubated with 2.5 μL of a test compound in DMSO and 72.5-82.5 μL lyso-PLD buffer (100 mM Tris pH 9, 500 mM NaCl, 5 mM MgCl2, 5 mM CaCl2, 0.05% Triton X-100 in the presence or absence of 0.2% fatty-acid-free human serum albumin) for 15 min at 37° C. After the 15 min incubation, 5 ul of 2 mM LPC (14:0; Avanti Polar Lipids Cat#855575C) diluted in lyso-PLD buffer is added for a final concentration of 100 uM and the incubation continues for 1.5-3 hours at 37° C. 100 μl of a color mix containing 4.5 mM 4-aminoantipyrine, 2.7 mM N-ethyl-N-(2-hydroxy-3-sulfopropyl)-m-toluidine, 21 units/ml horseradish peroxidase and 3 units/ml choline oxidase in 50 mM Tris, pH 8, 4.5 mM MgCl2 is added and the incubation continued for 15 minutes at room temperature before reading the absorbance at 555 nm.

| Structure (SMILES) | pIC50 |
| --- | --- |
| N#C/C(=C\c1cn(Cc2ccc(F)cc2)c2ccc(F)cc12)c1ccc(C(=O)O)cc1 [Compound 1-6, 4-[(Z)-1-cyano-2-[5-fluoro-1-[(4-fluorophenyl)methyl]indol-3-yl]vinyl]benzoic Acid] | 5.00 to 6.30 |
| N#C/C(=C\c1cn(Cc2ccccc2)c2cc(Cl)ccc12)c1cccc(C(=O)O)c1 [Compound 2-4, 3-[(Z)-2-(1-benzyl-6-chloro-indol-3-yl)-1-cyano-vinyl]benzoic Acid] | 5.00 to 6.30 |
| N#C/C(=C\c1cn(Cc2cc(Cl)cc(Cl)c2)c2cc(Cl)ccc12)c1ccc(C(=O)O)cc1 [Compound 1-19, 4-[(Z)-2-[6-chloro-1-[(3,5-dichlorophenyl)methyl]indol-3-yl]-1-cyano-vinyl]benzoic Acid] | 5.00 to 6.30 |
| N#C/C(=C\c1cn(Cc2ccc(F)cc2)c2cc(OC(F)(F)F)ccc12)c1ccc(C(=O)O)cc1 [Compound 1-75, (Z)-4-(1-cyano-2-(1-(4-fluorobenzyl)-6-trifluoromethoxy-1H-indol-3-yl)vinyl)benzoic Acid] | ≥ 6.30 |
| N#C/C(=C\c1cn(Cc2ccc(F)cc2)c2cc(Cl)ccc12)c1ccc(C(=O)O)nc1 [Compound 2-2, 5-[(Z)-2-[6-chloro-1-[(4-fluorophenyl)methyl]indol-3-yl]-1-cyano-vinyl]pyridine-2-carboxylic Acid] | ≥ 6.30 |
| N#C/C(=C\c1cn(Cc2ccc(C(F)(F)F)nc2)c2cc(Cl)ccc12)c1ccc(C(=O)O)cc1 [Compound 1-27, 4-[(Z)-2-[6-chloro-1-[[6-(trifluoromethyl)-3-pyridyl]methyl]indol-3-yl]-1-cyano-vinyl]benzoic Acid] | ≥ 6.30 |
| N#C/C(=C\c1cn(Cc2ccc(F)cc2)c2ccc(Cl)cc12)c1ccc(C(=O)O)cc1 [Compound 1-3, 4-[(Z)-2-[5-chloro-1-[(4-fluorophenyl)methyl]indol-3-yl]-1-cyano-vinyl]benzoic Acid] | < 5.00 |
| N#C/C(=C\c1cn(Cc2ccc(F)cc2)c2cc(F)ccc12)c1ccc(C(=O)O)cc1 [Compound 1-7, 4-[(Z)-1-cyano-2-[6-fluoro-1-[(4-fluorophenyl)methyl]indol-3-yl]vinyl]benzoic Acid] | ≥ 6.30 |
| N#C/C(=C\c1cn(Cc2ccc(F)cc2)c2c(F)c(Cl)ccc12)c1ccc(C(=O)O)cc1 [Compound 1-49, (Z)-4-(2-(6-chloro-7-fluoro-1-(4-fluorobenzyl)-1H-indol-3-yl)-1-cyanovinyl)benzoic Acid] | 5.00 to 6.30 |
| N#C/C(=C\c1cn(CCCc2ccc(F)cc2)c2cc(Cl)ccc12)c1ccc(C(=O)O)cc1 [Compound 1-23, 4-[(Z)-2-[6-chloro-1-[3-(4-fluorophenyl)propyl]indol-3-yl]-1-cyano-vinyl]benzoic Acid] | < 5.00 |
| N#C/C(=C\c1cn(Cc2ccc(F)cc2C(F)(F)F)c2cc(Cl)ccc12)c1ccc(C(=O)O)cc1 [Compound 1-46, (Z)-4-(2-(6-chloro-1-(4-fluoro-2-(trifluoromethyl)benzyl)-1H-indol-3-yl)-1-cyanovinyl)benzoic Acid] | < 5.00 |
